Results on 21 compounds are retold here after US6218406A, “Farnesyl transferase inhibitors, their preparation, the pharmaceutical compositions which contain them and their use in the preparation of medicaments” (Aventis Pharma S.A., priority 1996, dated 2001).

SMILES strings stand for the structures.

For one test, the target named is farnesyl transferase (Homo sapiens, UniProt P49354+P49356). Briefly: Farnesyl transferase inhibition, [3H]-farnesylation of biotinylated K-ras C-terminal peptide (SPA assay). Format: biochemical. To be noted: In vitro inhibitory activity (K-Ras) IC50, K-Ras substrate; 60 min at 37° C.; mean of two IC50 values. How it is done:
The farnesyl transferase activity was measured by the amount farnesylated of K-ras substrate or of substrate derived from the peptide corresponding to its C-terminal part, the farnesyl group being introduced by farnesyl pyrophosphate (FPP).
It was then brought into contact with PVT-streptavidin (Amersham)® beads and was quantified by proximity scintillation (SPA assay) between the tritium and the PVT beads, by virtue of the streptavidin/biotin interaction.
Experimentally, farnesyl transferase purified according to the appended protocol was diluted, for this assay, to a concentration such that a consumption of substrates of less than 30% was obtained.
The reaction, carried out in Optiplates 96° microtitration plates, was initiated by the enzyme and lasted sixty minutes at 37° C. It was stopped by addition of 150 μl of mixture of a blocking buffer at pH 4 composed of 0.2M H3 PO4, 1.5 mM MgCl2, 0.5% (w/v) BSA, 0.05% (w/v) sodium azide containing 200 μg of PVT-streptavidin beads.
After slow agitation for thirty minutes (in order to remove the chemiluminescence), the plates were read as [^3 H]CPM in a Top Count® (Packard) scintillation counter for microplates, where they were converted into [^3 H]DPM from a range of coloured agent attenuating the scintillation (quenching).
The percentages of inhibition were calculated with respect to an inhibitor-free control after subtraction from all the values of that of a blank which only contained the substrates and the buffer.
The IC50 values were calculated or measured, from the inhibitions obtained at nine different concentrations, with Enzfitter® or Grafit® software. The IC50 values which appear in the results are the mean of measurements and calculations of two IC50 values.
A word on the IC50: it is the concentration at which inhibition is half-maximal. Take `C=C(C(=O)N1C[C@@H]2[C@@]3(c4ccsc4)CC[C@@H](c4ccccc43)[C@]2(C(=O)O)C1)c1ccccc1OC` (racemic) [Example 58, (3aRS,4SR,9SR,9aRS)-4,9-ethano-2-[2-(2-methoxyphenyl)propenoyl]-9-(3-thienyl)-2,3,3a,4,9,9a-hexahydro-1H-benzo[f]isoindole-3a-carboxylic Acid]: the IC50 turned out to be 138 nM.

The same test, now with this note: K-Ras substrate; 60 min at 37° C.; mean of two IC50 values; read-out: In vitro inhibitory activity (K-Ras) IC50.
Regarding `C=C(C(=O)N1C[C@@H]2[C@]3(c4ccc(Cl)cc4)CC[C@@H](c4ccccc43)[C@]2(C(=O)OC)C1)c1ccccc1OC` (racemic) [Example 52, methyl (3aRS,4SR,9SR,9aRS)-9-(4-chlorophenyl)-4,9-ethano-2-[2-(2-methoxyphenyl)-propenoyl]-2,3,3a,4,9,9a-hexahydro-1H-benzo[f]isoindole-3a-carboxylate], the IC50 was found to be 181 nM. On the same count and under the same terms, in the case of `C=C(C(=O)N1C[C@@H]2[C@]3(c4ccc(Cl)cc4)CC[C@@H](c4ccccc43)[C@]2(C(=O)O)C1)c1ccccc1OC` (racemic) [Example 53, (3aRS,4SR,9SR,9aRS)-9-(4-chlorophenyl)-4,9-ethano-2-[2-(2-methoxyphenyl)propenoyl]-2,3,3a,4,9,9a-hexahydro-1H-benzo[f]isoindole-3a-carboxylic Acid] it was 20 nM; in that of `C=C(C(=O)N1C[C@@H]2[C@]3(c4ccc(OC)c(C)c4)CC[C@@H](c4ccccc43)[C@]2(C(=O)O)C1)c1ccccc1OC` (racemic) [Example 54, (3aRS,4SR,9SR,9aRS)-4,9-ethano-2-[2-(2-methoxyphenyl)propenoyl]-9-(4-methoxy-3-methylphenyl)-2,3,3a,4,9,9a-hexahydro-1H-benzo[f]isoindole-3a-carboxylic Acid], 78 nM. The same measure, in the same setting: in the case of `C=C(C(=O)N1C[C@@H]2[C@@]3(c4c[nH]c5ccccc45)CC[C@@H](c4ccccc43)[C@]2(C(=O)OC)C1)c1ccccc1OC` (racemic) [Example 55, methyl (3aRS,4SR,9SR,9aRS)-4,9-ethano-2-[2-(2-methoxyphenyl)propenoyl]-9-(3-indolyl)-2,3,3a,4,9,9a-hexahydro-1H-benzo[f]isoindole-3a-carboxylate] it was 558 nM; in that of `COc1ccccc1CC(=O)N1C[C@@H]2[C@]3(c4ccc(C(C)C)cc4)CC[C@@H](c4ccccc43)[C@]2(C(=O)O)C1` (racemic) [Example 56, (3aRS,4SR,9SR,9aRS)-4,9-ethano-9-(4-isopropylphenyl)-2-[(2-methoxyphenyl)acetyl]-2,3,3a,4,9,9a-hexahydro-1H-benzo[f]isoindole-3a-carboxylic Acid], 589 nM; in that of `C=C(C(=O)N1C[C@@H]2[C@]3(c4ccc(C(C)C)cc4)CC[C@@H](c4ccccc43)[C@]2(C(=O)O)C1)c1ccccc1OC` (racemic) [Example 57, (3aRS,4SR,9SR,9aRS)-4,9-ethano-9-(4-isopropylphenyl)-2-[2-(2-methoxyphenyl)propenoyl]-2,3,3a,4,9,9a-hexahydro-1H-benzo[f]isoindole-3a-carboxylic Acid], 280 nM. The same measure, in the same setting: the value for `C=C(C(=O)N1C[C@@H]2[C@]3(c4ccc(CC)cc4)CC[C@@H](c4ccccc43)[C@]2(C(=O)OC)C1)c1ccccc1OC` (racemic) [Example 59, methyl (3aRS,4SR,9SR,9aRS)-4,9-ethano-9-(4-ethylphenyl)-2-[2-(2-methoxyphenyl)propenoyl]-2,3,3a,4,9,9a-hexahydro-1H-benzo[f]isoindole-3a-carboxylate] was 408 nM; that for `C=C(C(=O)N1C[C@@H]2[C@]3(c4ccc(CC)cc4)CC[C@@H](c4ccccc43)[C@]2(C(=O)O)C1)c1ccccc1OC` (racemic) [Example 60, (3aRS,4SR,9SR,9aRS)-4,9-ethano-9-(4-ethylphenyl)-2-[2-(2-methoxyphenyl)propenoyl]-2,3,3a,4,9,9a-hexahydro-1H-benzo[f]isoindole-3a-carboxylic Acid] was 124 nM. For the compound `C=C(C(=O)N1C[C@@H]2[C@]3(c4ccc5c(c4)CCO5)CC[C@@H](c4ccccc43)[C@]2(C(=O)OC)C1)c1ccccc1OC` (racemic) [Example 61, methyl (3aRS,4SR,9SR,9aRS)-9-(2,3-dihydrobenzofuran-5-yl)-4,9-ethano-2-[2-(2-methoxyphenyl)propenoyl]-2,3,3a,4,9,9a-hexahydro-1H-benzo[f]isoindole-3a-carboxylate], the IC50 was 178 nM. `C=C(C(=O)N1C[C@@H]2[C@]3(c4ccc5c(c4)CCO5)CC[C@@H](c4ccccc43)[C@]2(C(=O)O)C1)c1ccccc1OC` (racemic) [Example 62, (3aRS,4SR,9SR,9aRS)-9-(2,3-dihydrobenzofuran-5-yl)-4,9-ethano-2-[2-(2-methoxyphenyl)propenoyl]-2,3,3a,4,9,9a-hexahydro-1H-benzo[f]isoindole-3a-carboxylic Acid]: the IC50 came out at 36 nM. On the same count and under the same terms, the value for `C=C(C(=O)N1C[C@@H]2[C@]3(c4ccc(F)cc4)CC[C@@H](c4ccccc43)[C@]2(C(=O)OC)C1)c1ccccc1OC` (racemic) [Example 64, methyl (3aRS,4SR,9SR,9aRS)-4,9-ethano-9-(4-fluorophenyl)-2-[2-(2-methoxyphenyl)propenoyl]-2,3,3a,4,9,9a-hexahydro-1H-benzo[f]isoindole-3a-carboxylate] was 325 nM. On the same count and under the same terms, the value for `C=C(C(=O)N1C[C@@H]2[C@]3(c4ccc(F)cc4)CC[C@@H](c4ccccc43)[C@]2(C(=O)O)C1)c1ccccc1OC` (racemic) [Example 65, (3aRS,4SR,9SR,9aRS)-4,9-ethano-9-(4-fluorophenyl)-2-[2-(2-methoxyphenyl)propenoyl]-2,3,3a,4,9,9a-hexahydro-1H-benzo[f]isoindole-3a-carboxylic acid] was 40 nM. Same read-out and setting: in the case of `C=C(C(=O)N1C[C@@H]2[C@]3(c4ccc(Cl)c(F)c4)CC[C@@H](c4ccccc43)[C@]2(C(=O)OC)C1)c1ccccc1OC` (racemic) [Example 66, methyl (3aRS,4SR,9SR,9aRS)-9-(4-chloro-3-fluorophenyl)-4,9-ethano-2-[2-(2-methoxyphenyl)-propenoyl]-2,3,3a,4,9,9a-hexahydro-1H-benzo[f]isoindole-3a-carboxylate] it was 379 nM; in that of `C=C(C(=O)N1C[C@@H]2[C@]3(c4ccc(Cl)c(F)c4)CC[C@@H](c4ccccc43)[C@]2(C(=O)O)C1)c1ccccc1OC` (racemic) [Example 67, (3aRS,4SR,9SR,9aRS)-9-(4-chloro-3-fluorophenyl)-4,9-ethano-2-[2-(2-methoxyphenyl)propenoyl]-2,3,3a,4,9,9a-hexahydro-1H-benzo[f]isoindole-3a-carboxylic Acid], 101 nM.

Take `C=C(C(=O)N1C[C@@H]2[C@]3(c4cccc(C)c4)CC[C@@H](c4ccccc43)[C@]2(C(=O)OC)C1)c1ccccc1OC` (racemic) [Example 68, methyl (3aRS,4SR,9SR,9aRS)-4,9-ethano-2-[2-(2-methoxyphenyl)propenoyl]-9-(3-methylphenyl)-2,3,3a,4,9,9a-hexahydro-1H-benzo[f]isoindole-3a-carboxylate]: the IC50 was 431 nM. Still for that read-out and setting: in the case of `C=C(C(=O)N1C[C@@H]2[C@]3(c4cccc(C)c4)CC[C@@H](c4ccccc43)[C@]2(C(=O)O)C1)c1ccccc1OC` (racemic) [Example 69, (3aRS,4SR,9SR,9aRS)-4,9-ethano-2-[2-(2-methoxyphenyl)propenoyl]-9-(3-methylphenyl)-2,3,3a,4,9,9a-hexahydro-1H-benzo[f]isoindole-3a-carboxylic Acid] it was 53 nM; in that of `C=C(C(=O)N1C[C@@H]2[C@]3(c4ccc5c(c4)OCO5)CC[C@@H](c4ccccc43)[C@]2(C(=O)O)C1)c1ccccc1OC` (racemic) [Example 70, (3aRS,4SR,9SR,9aRS)-9-(1,3-benzodioxol-5-yl)-4,9-ethano-2-[2-(2-methoxyphenyl)propenoyl]-2,3,3a,4,9,9a-hexahydro-1H-benzo[f]isoindole-3a-carboxylic Acid], 67 nM. Same read-out and setting: in the case of `C=C(C(=O)N1C[C@@H]2[C@]3(c4ccc(C)c(C)c4)CC[C@@H](c4ccccc43)[C@]2(C(=O)OC)C1)c1ccccc1OC` (racemic) [Example 71, methyl (3aRS,4SR,9SR,9aRS)-9-(3,4-dimethylphenyl)-4,9-ethano-2-[2-(2-methoxyphenyl)propenoyl]-2,3,3a,4,9,9a-hexahydro-1H-benzo[f]isoindole-3a-carboxylate] it was 335 nM. Still for that read-out and setting: in the case of `C=C(C(=O)N1C[C@@H]2[C@]3(c4ccc(C)c(C)c4)CC[C@@H](c4ccccc43)[C@]2(C(=O)O)C1)c1ccccc1OC` (racemic) [Example 72, (3aRS,4SR,9SR,9aRS)-9-(3,4-dimethylphenyl)-4,9-ethano-2-[2-(2-methoxyphenyl)propenoyl]-2,3,3a,4,9,9a-hexahydro-1H-benzo[f]isoindole-3a-carboxylic Acid] it was 98 nM.

As to `C=C(C(=O)N1C[C@@H]2[C@]3(c4ccc(OC)cc4)CC[C@@H](c4ccccc43)[C@]2(C(=O)OC)C1)c1ccccc1OC` (racemic) [Example 73, methyl (3aRS,4SR,9SR,9aRS)-4,9-ethano-9-(4-methoxyphenyl)-2-[2-(2-methoxyphenyl)propenoyl]-2,3,3a,4,9,9a-hexahydro-1H-benzo[f]isoindole-3a-carboxylate], the IC50 was 460 nM.
